Assay results taken from PMC9525761, “Cytotoxicity and Genotoxicity of Biogenic Silver Nanoparticles in A549 and BEAS-2B Cell Lines” (Bioinorganic Chemistry and Applications, 2022).
Read-outs that look alike come from different tables or passages of the source.

Legend:
Assay type in all cases: cell-based, human
A549 cells [1] = test: Apoptosis by DAPI and AO/PI double staining, A549 cells; conditions: A549, IC50, 24 hours
Description: (§1) DAPI staining is used to assess apoptosis-related morphological changes such as nuclear fragmentation or condensation. […] AO stains both live and dead cells, whereas PI stains only the dead cells. […] Following incubation, the cells were washed with PBS and then fixed with 1 mL of 4% paraformaldehyde (Sigma-Aldrich, St. Louis, Missouri, USA) and cold 70% ethanol for 10 minutes at room temperature. Then, the cells were stained with a 1 : 1 ratio of 10 µg/mL of DAPI (Nacalai, Tesque chemical, Kyoto, Japan) and 10 μg/mL acridine orange/propidium iodide (Sigma-Aldrich, St. Louis, Missouri, USA) and incubated for 30 minutes in the dark. An Olympus IX71 inverted fluorescence microscope (Olympus, Tokyo, Japan) was used to observe and record the morphology of the cells.

BEAS-2B cells [2] = test: Apoptosis by DAPI and AO/PI double staining, BEAS-2B cells; conditions: IC50, 24 hours
Description: as §1

BEAS-2B cells [3] = test: MTT cytotoxicity assay, BEAS-2B cells; conditions: for IC50: table prints none, read-out: average IC50, BEAS-2B cells (mean ± SD)
A549 cells [4] = test: Comet Assay DNA damage, A549 cells; set-up: key to DNA damage class (comet visual scoring, Classes 0–4): Class 4: Classes 0–4 to be used for visual scoring. The increased number of classes represents the increase in DNA damage severity; Class 3: Classes 0–4 to be used for visual scoring. The increased number of classes represents the increase in DNA damage severity; Class 2: Classes 0–4 to be used for visual scoring. The increased number of classes represents the increase in DNA damage severity; conditions: for DNA damage class (comet visual scoring, Classes 0–4): IC50 for 24 h (H2O2: 100 μM); for % DNA in tail / Olive tail moment / Tail length (px): IC50 for 24 h (H2O2: 100 μM, 20 minutes)
Description: (§2) The Comet Assay® kit (Trevigen, Inc, USA) was used to perform DNA damage activity analysis. […] After being detached by Accutase (BD™Bioscience, USA), the cells were collected and washed with ice-cold PBS. […] The cells were then lysed in the lysis solution at 4°C for 30 minutes. Then, the cells were kept in an alkaline unwinding solution at room temperature for 20 minutes to allow the DNA to unwind. The test was immediately followed by electrophoresis, performed at 21 V and 300 mA for 30 minutes. Slides were washed in 70% ethanol and water and stained with SYBR® gold nucleic acid gel stain (Invitrogen, Thermo Fisher Scientific, USA) before visualisation under the Olympus IX71 inverted fluorescence microscope (Olympus, Tokyo, Japan). A total of 50 cells were randomly selected and captured per sample at 100× magnification and analysed using the Open Comet Image J available at https:/www.cometbio.org/. Tail length, percentage of tail DNA, and Olive Tail Moment (OTM) were calculated for DNA damage assessment.

BEAS-2B cells [5] = test: Comet Assay DNA damage, BEAS-2B cells; set-up: key to DNA damage class (comet visual scoring, Classes 0–4): Class 4: Classes 0–4 to be used for visual scoring. The increased number of classes represents the increase in DNA damage severity; Class 3: Classes 0–4 to be used for visual scoring. The increased number of classes represents the increase in DNA damage severity; Class 2: Classes 0–4 to be used for visual scoring. The increased number of classes represents the increase in DNA damage severity; conditions: for DNA damage class (comet visual scoring, Classes 0–4): IC50 for 24 h (H2O2: 100 μM); for % DNA in tail / Olive tail moment / Tail length (px): IC50 for 24 h (H2O2: 100 μM, 20 minutes)
Description: as §2

A549 cells [6] = test: MTT cytotoxicity assay, A549 cells (with selectivity index); conditions: for Selectivity index (SI): IC50 normal cells (BEAS-2B) / IC50 cancer cells (A549); for IC50: table prints none, read-out: average IC50, A549 cells (mean ± SD)
Description: Both A549 and BEAS-2B cells were originally purchased from the American Type Culture Collection (ATCC, USA). Both cells were cultured in Dulbecco's Modified Eagle's Medium (DMEM: Gibco, USA) and 1 : 1 mixture of DMEM and Ham's F-12 (DMEM-F12; Gibco, USA) medium with phenol red and supplemented with 10% fetal bovine serum (FBS; Gibco, USA), 0.1% (v/v) penicillin-streptomycin, and 2 mM L-glutamine (PenStrep; Gibco, USA). The cell lines were maintained in a humidified environment at 37°C with 5% CO2.
The culture medium alone (without cells) was included as a blank for this test. A549 and BEAS-2B cells were treated with Cisplatin as a positive control. A total of 10 μL of MTT solution (5 mg/mL) was applied to each well at about 24 to 72 hours after treatment and was further incubated for 4 hours in the dark at 37°C with 5% CO2. Upon incubation, the mixture solution was aspirated, and 100 μL of dimethyl sulfoxide (DMSO) (Fisher Scientific, USA) was added to solubilise the purple formazan. The optical density (O.D.) of each sample was measured at a 570 nm wavelength using a microplate reader (BioTek Instruments, Inc, USA). The percentage (%) of cell viability was determined using the following formula [37]:(1) Cell viability%=O.D.treatment–O.D.blank/O.D.untreated cell–O.D.blank×100%.
Based on the measured cell viability (%), a graph was created to display the dose-response curves for each cell line. […] The data was expressed as a mean and standard deviation with each experiment consisting of triplicates. Statistical differences between untreated cells and treated cells were determined using Student's t-test (IBM SPSS Statistics 27).

BEAS-2B cells [7] = test: Intracellular ROS, CM-H2DCFDA assay, BEAS-2B cells; conditions: treated with IC50 for 24 hours, control (untreated cells) set to 1
Description: (§3) After exposure, cells were washed with PBS and loaded with 2.5 μM of CM-H2DCFDA in phenol red and FBS-free media in the dark for 30 minutes at 37°C. Subsequently, the reaction mixture was aspirated; cells were washed with fresh culture media and replaced with 100 μL of culture media. The DCF fluorescence intensity was measured at 485 nm excitation and 520 nm emission using a FLUOstar Omega fluorescence plate reader (BMG Labtech, Ortenberg, Germany). Results are presented as mean fold change ± standard deviation of three independent experiments.

A549 cells [8] = test: Intracellular ROS, CM-H2DCFDA assay, A549 cells; conditions: A549, treated with IC50 for 24 hours; control (untreated cells) set to 1
Description: as §3

Row | SMILES | IC50 (BEAS-2B cells [3]; 24 h) | IC50 (BEAS-2B cells [3]; 48 h) | IC50 (BEAS-2B cells [3]; 72 h) | DNA damage class (comet visual scoring, Classes 0–4) (A549 cells [4]) | % DNA in tail (A549 cells [4]) | Olive tail moment (A549 cells [4]) | Tail length (px) (A549 cells [4]) | DNA damage class (comet visual scoring, Classes 0–4) (BEAS-2B cells [5]) | % DNA in tail (BEAS-2B cells [5]) | Olive tail moment (BEAS-2B cells [5]) | Tail length (px) (BEAS-2B cells [5]) | other results
1 | N.N.[Cl][Pt][Cl] [Cisplatin] | 69.2 ± 1.75 µM | 31.6 ± 3.27 µM | 18.84 ± 0.13 µM | Class 3 | 48.26 ± 4.54% | 28.81 ± 4.94 | 73.83 ± 8.9 px | Class 4 | 63.79 ± 3.01% | 78.49 ± 0.8 | 160.07 ± 3.3 px | mode of cell death (DAPI, AO/PI staining), in words (A549 cells [1]): induce apoptosis; mode of cell death (DAPI, AO/PI staining), in words (BEAS-2B cells [2]): induce apoptosis; concentration at which BEAS-2B cells were significantly dead (BEAS-2B cells [3]; all three time points (24, 48, 72 h)): 65 µM; Selectivity index (SI) (A549 cells [6]; 24 h): 1.32; Selectivity index (SI) (A549 cells [6]; 48 h): 1.66; Selectivity index (SI) (A549 cells [6]; 72 h): 1.08; IC50 (A549 cells [6]; MTT, 24 h): 52.5 ± 7.92 µM; IC50 (A549 cells [6]; MTT, 48 h): 19.1 ± 3.19 µM; IC50 (A549 cells [6]; MTT, 72 h): 17.5 ± 0.6 µM; concentration at which A549 cells were significantly dead (A549 cells [6]; MTT, all three time points (24, 48, 72 h)): 50 µM; ROS level, DCF fold (BEAS-2B cells [7]): 1.23 ± 0.01 fold change; ROS level, DCF fold (A549 cells [8]): 1.16 ± 0.04 fold change
2 | OO [H2O2] |  |  |  | Class 2 | 35.64 ± 9.31% | 9.51 ± 3.49 | 25.3 ± 6.96 px | Class 4 | 85.86 ± 2.71% | 27.63 ± 4.6 | 53.91 ± 9.95 px | 
3 | O=[N+]([O-])[O-].[Ag+] [AgNO3, silver nitrate] | 16 ± 0.03 µM | 15 ± 0.02 µM | 14 ± 0.02 µM |  |  |  |  |  |  |  |  | concentrations decreasing proliferation of BEAS-2B cells to nearly 50% (BEAS-2B cells [3]; after 24 to 74 hours of treatment (so in the source)): 20 to 100 µM
